Test results as given in patent US20250236589A1, “THERAPEUTIC PHENETHYLAMINE COMPOSITIONS AND METHODS OF USE” (Cybin IRL Limited, priority 2022, published 2025).

Key:
[1] = target: κ-opioid (h) (Homo sapiens (Human), UniProt P41145); test: Off-target screen, radioligand displacement at 10 μM; details: read-out: binding at 10 μM
[2] = target: PAC1 (Pituitary adenylate cyclase-activating polypeptide, PACAP) (h) (Homo sapiens (Human), UniProt P41586); test: as above; details: read-out: binding at 10 μM
[3] = target: PPARγ (h) (Homo sapiens (Human), UniProt P37231); test: as above; details: read-out: binding at 10 μM
[4] = target: Adrenergic β1 (h) (Homo sapiens (Human), UniProt P08588); test: as above; details: read-out: binding at 10 μM
[5] = target: D2S (h) (Homo sapiens (Human), UniProt P14416); test: as above; details: read-out: binding at 10 μM
D2S (h), sequence (P14416 whole entry, looked up): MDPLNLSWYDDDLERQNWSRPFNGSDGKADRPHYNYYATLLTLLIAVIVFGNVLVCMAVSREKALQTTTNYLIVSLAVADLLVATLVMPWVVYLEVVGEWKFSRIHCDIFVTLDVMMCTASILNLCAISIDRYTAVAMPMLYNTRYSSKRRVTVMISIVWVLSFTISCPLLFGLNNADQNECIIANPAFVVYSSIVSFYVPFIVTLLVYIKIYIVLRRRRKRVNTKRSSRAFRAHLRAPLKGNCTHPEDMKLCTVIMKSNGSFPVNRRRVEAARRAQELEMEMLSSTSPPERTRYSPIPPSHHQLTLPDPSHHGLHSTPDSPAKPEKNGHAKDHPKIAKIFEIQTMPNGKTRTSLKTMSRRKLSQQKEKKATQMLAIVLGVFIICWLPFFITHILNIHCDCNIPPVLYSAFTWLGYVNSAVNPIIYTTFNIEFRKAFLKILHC

[6] = target: 5-HT1A (h) (Homo sapiens (Human), UniProt P08908); test: as above; type: binding; details: agonist radioligand
[7] = target: 5-HT2A receptor (Homo sapiens (Human), UniProt P28223); test: 5-HT2A functional assay, IP1 (IPOne); type: cell-based; details: IP1 assay; relative to 5-HT
Protocol: After incubation, cells were lysed and fluorescence acceptor and donor were added. FRET was measured after 60 min at room temperature using a microplate reader (Envision, Perkin Elmer). TRUPATH assays followed a similar workflow, except that different reagents were used, and LiCl was not included in the samples; the protocol was based on the report by Olsen, R. H. J. et al., cited above.

[8] = target: 5-HT transporter (h) (Homo sapiens (Human), UniProt P31645); test: Off-target screen, radioligand displacement at 10 μM; type: binding; details: antagonist radioligand; read-out: inhibition at 10 μM
[9] = test system: TNF-α (h); test: as above; type: binding, human
[10] = target: BZD (peripheral) (rat heart) (Rattus norvegicus (Rat), UniProt P16257); test: as above; details: read-out: binding at 10 μM
BZD (peripheral) (rat heart), sequence (P16257 whole entry, looked up): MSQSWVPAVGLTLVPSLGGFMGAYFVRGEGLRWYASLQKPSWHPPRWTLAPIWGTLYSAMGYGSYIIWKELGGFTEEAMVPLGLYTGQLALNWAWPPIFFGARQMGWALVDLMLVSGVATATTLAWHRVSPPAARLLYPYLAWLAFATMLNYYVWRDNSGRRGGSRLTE

[11] = test system: Potassium KV channel (rat cortex); test: as above; type: binding
[12] = target: Dopamine D3 (h) (Homo sapiens (Human), UniProt P35462); test: as above; type: binding; details: read-out: binding at 10 μM
[13] = target: Muscarinic M2 (h) (Homo sapiens (Human), UniProt P08172); test: as above; details: read-out: binding at 10 μM
[14] = target: Endothelin ETB (h) (Homo sapiens (Human), UniProt P24530); test: as above; details: read-out: binding at 10 μM
Endothelin ETB (h), sequence (P24530 whole entry, looked up): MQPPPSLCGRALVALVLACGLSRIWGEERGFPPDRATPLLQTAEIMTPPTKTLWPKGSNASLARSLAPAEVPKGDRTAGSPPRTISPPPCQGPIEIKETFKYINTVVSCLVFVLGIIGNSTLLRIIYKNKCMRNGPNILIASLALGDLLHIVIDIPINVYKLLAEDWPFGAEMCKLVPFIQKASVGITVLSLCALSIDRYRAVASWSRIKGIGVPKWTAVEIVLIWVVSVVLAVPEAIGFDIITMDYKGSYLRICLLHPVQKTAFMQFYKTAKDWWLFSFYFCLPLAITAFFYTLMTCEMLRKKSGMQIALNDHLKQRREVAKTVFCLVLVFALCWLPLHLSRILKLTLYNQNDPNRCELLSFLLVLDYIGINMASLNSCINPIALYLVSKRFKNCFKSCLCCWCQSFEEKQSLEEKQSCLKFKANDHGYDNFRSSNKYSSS

[15] = test system: Calcium SKCa channel (rat cortex); test: as above; type: binding
[16] = target: Angiotensin AT1 (h) (Homo sapiens (Human), UniProt P30556); test: as above; details: read-out: binding at 10 μM
Angiotensin AT1 (h), sequence (P30556 whole entry, looked up): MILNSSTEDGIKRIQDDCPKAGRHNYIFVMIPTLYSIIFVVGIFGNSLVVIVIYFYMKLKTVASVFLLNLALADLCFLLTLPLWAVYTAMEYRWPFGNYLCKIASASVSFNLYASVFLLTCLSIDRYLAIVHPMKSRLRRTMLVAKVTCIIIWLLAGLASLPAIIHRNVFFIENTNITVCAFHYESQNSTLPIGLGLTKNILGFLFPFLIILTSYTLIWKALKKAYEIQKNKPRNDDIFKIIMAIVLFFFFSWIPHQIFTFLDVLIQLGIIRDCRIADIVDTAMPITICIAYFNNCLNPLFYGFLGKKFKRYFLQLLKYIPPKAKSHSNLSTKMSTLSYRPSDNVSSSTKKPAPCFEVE

[17] = target: 5-HT2C receptor (Homo sapiens (Human), UniProt P28335); test: 5-HT2C agonist radioligand binding ([125I]DOI)
From the text: 5-HT2 Receptor Activity. […] Drug Test Anal 2012, 4 (7-8), 556-76. Ray, T. S., Psychedelics and the human receptorome. PLoS One 2010, 5 (2), e9019].

[18] = target: μ-opioid (h) (Homo sapiens (Human), UniProt P35372); test: Off-target screen, radioligand displacement at 10 μM; type: binding; details: agonist radioligand; read-out: inhibition at 10 μM
[19] = target: Tachykinin NK3 (h) (Homo sapiens (Human), UniProt P29371); test: as above; details: read-out: binding at 10 μM
Tachykinin NK3 (h), sequence (P29371 whole entry, looked up): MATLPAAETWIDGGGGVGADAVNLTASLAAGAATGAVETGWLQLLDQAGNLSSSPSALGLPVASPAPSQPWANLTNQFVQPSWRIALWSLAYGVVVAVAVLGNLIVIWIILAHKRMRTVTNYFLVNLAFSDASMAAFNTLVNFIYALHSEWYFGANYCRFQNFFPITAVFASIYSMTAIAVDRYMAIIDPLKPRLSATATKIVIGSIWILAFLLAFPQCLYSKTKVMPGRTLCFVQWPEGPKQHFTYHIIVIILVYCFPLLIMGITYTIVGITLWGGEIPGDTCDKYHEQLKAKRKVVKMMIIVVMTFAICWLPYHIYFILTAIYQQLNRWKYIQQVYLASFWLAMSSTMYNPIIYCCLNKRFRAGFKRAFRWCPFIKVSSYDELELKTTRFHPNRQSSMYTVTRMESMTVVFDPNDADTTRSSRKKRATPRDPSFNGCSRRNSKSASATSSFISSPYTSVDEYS

[20] = target: Galanin GAL2 (h) (Homo sapiens (Human), UniProt O43603); test: as above; details: read-out: binding at 10 μM
Galanin GAL2 (h), sequence (O43603 whole entry, looked up): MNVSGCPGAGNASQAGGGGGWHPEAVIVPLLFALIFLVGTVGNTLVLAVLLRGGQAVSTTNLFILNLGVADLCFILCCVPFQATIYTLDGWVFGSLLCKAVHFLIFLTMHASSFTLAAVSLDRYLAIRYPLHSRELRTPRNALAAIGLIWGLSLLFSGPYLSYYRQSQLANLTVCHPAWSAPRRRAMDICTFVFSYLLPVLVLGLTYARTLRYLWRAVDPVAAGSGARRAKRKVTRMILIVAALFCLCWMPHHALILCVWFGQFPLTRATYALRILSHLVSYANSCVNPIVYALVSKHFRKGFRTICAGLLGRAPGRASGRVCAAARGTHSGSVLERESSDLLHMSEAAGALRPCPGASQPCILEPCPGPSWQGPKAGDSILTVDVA

[21] = target: Melanocortin MC4 (h) (Homo sapiens (Human), UniProt P32245); test: as above; details: read-out: binding at 10 μM
[22] = target: Cholecystokinin CCK2 (CCKB) (h) (Homo sapiens (Human), UniProt P32239); test: as above; details: read-out: binding at 10 μM
Cholecystokinin CCK2 (CCKB) (h), sequence (P32239 whole entry, looked up): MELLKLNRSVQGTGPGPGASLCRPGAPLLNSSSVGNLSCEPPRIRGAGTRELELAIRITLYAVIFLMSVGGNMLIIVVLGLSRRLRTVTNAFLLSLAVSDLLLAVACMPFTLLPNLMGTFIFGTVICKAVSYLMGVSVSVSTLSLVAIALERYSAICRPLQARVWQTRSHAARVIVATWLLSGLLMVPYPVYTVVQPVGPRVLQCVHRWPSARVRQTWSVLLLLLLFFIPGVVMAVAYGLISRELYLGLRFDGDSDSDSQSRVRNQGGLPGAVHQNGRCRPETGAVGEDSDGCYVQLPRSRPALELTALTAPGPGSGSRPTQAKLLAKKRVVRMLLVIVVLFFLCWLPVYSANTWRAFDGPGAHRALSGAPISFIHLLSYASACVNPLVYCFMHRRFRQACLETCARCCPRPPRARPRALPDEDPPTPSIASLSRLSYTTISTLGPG

[23] = target: δ-opioid (h) (Homo sapiens (Human), UniProt P41143); test: as above; details: read-out: binding at 10 μM
δ-opioid (h), sequence (P41143 whole entry, looked up): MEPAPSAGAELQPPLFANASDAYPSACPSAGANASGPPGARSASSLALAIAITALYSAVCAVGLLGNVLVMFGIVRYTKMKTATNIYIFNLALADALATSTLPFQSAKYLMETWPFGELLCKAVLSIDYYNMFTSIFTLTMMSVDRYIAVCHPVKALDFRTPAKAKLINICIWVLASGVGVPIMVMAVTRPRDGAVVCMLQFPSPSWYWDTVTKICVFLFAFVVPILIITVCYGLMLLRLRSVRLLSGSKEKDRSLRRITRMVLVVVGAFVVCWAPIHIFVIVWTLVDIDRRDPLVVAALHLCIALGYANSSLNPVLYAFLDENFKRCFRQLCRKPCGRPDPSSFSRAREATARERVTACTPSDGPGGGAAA

[24] = target: Neuropeptide Y Y2 (h) (Homo sapiens (Human), UniProt P49146); test: as above; details: read-out: binding at 10 μM
[25] = target: 5-HT6 (h) (Homo sapiens (Human), UniProt P50406); test: as above; type: binding; details: agonist radioligand
[26] = target: Muscarinic M3 (h) (Homo sapiens (Human), UniProt P20309); test: as above; type: binding; details: antagonist radioligand
Muscarinic M3 (h), sequence (P20309 whole entry, looked up): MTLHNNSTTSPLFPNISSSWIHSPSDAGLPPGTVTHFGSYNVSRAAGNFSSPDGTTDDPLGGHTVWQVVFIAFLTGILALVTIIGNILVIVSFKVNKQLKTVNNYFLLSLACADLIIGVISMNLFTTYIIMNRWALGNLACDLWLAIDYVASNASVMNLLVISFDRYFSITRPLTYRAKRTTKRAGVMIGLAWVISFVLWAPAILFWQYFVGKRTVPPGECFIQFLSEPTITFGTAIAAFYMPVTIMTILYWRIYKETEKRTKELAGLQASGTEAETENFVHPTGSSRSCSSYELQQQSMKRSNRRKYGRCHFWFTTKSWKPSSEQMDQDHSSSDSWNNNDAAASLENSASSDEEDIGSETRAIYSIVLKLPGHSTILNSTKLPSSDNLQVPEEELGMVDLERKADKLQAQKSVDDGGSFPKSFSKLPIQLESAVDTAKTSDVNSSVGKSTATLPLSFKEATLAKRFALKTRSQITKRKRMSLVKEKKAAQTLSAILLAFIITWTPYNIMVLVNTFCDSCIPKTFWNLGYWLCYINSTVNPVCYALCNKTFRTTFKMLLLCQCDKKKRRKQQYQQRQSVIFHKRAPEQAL

[27] = test system: P2X (ATP) (rat urinary bladder); test: as above; type: binding
[28] = target: Glucocorticoid GR (h) (Homo sapiens (Human), UniProt P04150); test: as above; details: read-out: binding at 10 μM
Glucocorticoid GR (h), sequence (P04150 whole entry, looked up): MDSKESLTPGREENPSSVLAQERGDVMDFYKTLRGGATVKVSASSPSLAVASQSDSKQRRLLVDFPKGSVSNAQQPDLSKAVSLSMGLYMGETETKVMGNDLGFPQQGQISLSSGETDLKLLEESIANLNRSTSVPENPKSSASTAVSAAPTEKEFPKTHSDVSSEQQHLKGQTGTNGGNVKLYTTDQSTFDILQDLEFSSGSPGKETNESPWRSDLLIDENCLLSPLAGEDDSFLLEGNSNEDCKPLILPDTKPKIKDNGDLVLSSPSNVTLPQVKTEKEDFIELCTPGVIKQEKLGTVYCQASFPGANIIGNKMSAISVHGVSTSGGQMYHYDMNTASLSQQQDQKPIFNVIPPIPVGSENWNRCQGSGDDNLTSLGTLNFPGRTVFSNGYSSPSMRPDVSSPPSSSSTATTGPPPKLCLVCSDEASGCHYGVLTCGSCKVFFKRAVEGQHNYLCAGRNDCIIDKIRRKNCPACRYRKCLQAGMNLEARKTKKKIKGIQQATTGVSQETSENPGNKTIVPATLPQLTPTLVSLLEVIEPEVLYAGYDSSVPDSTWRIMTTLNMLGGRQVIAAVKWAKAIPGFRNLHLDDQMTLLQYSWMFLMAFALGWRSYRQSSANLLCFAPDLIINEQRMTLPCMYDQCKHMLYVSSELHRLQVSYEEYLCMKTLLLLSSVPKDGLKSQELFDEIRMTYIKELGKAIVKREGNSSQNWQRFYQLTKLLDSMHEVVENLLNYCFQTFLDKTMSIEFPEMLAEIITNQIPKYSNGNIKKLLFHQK

[29] = target: Endothelin ETA (h) (Homo sapiens (Human), UniProt P25101); test: as above; details: read-out: binding at 10 μM
[30] = target: 5-HT5a (h) (Homo sapiens (Human), UniProt P47898); test: as above; details: agonist, read-out: binding at 10 μM
[31] = test system: GABA (non-selective) (rat cortex); test: as above; type: binding
[32] = test system: PCP (rat cortex); test: as above; type: binding
[33] = target: Prostaglandin EP2 (h) (Homo sapiens (Human), UniProt P43116); test: as above; details: read-out: binding at 10 μM
Prostaglandin EP2 (h), sequence (P43116 whole entry, looked up): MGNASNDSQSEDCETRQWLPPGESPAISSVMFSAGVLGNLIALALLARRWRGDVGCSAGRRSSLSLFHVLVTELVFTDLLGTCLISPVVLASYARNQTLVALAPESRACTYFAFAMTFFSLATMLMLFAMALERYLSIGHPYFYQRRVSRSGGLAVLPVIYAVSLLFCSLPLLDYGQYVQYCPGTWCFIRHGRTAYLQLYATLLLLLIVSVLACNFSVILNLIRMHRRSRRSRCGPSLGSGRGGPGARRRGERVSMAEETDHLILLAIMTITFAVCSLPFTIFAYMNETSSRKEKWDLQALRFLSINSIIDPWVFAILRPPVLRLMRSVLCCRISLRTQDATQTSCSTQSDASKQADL

[34] = target: Orphanin ORL1 (h) (Homo sapiens (Human), UniProt P41146); test: as above; details: read-out: binding at 10 μM
[35] = target: Adenosine A2A (h) (Homo sapiens (Human), UniProt P29274); test: as above; type: binding

## COc1cc(CC(C)N)c(OC)cc1I (racemic) [DOI, (±)-2,5-dimethoxy-4-iodoamphetamine, reference compound]
[1]
  inhibition at 10 µM: < 50%
[2]
  inhibition at 10 µM: < 50%
[3]
  inhibition at 10 µM: < 50%
[4]
  inhibition at 10 µM: < 50%
[5]
  inhibition at 10 µM: < 50%
[6]
  inhibition at 10 µM: ≥ 80%
[7]
  Emax: ~86%
[8]
  inhibition at 10 µM: 76.2%
[9]
  binding at 10 μM: NB (inhibited less than 50% of radioligand bound to them, and therefore it can be concluded they do not bind (“no binding,” NB))
[10]
  inhibition at 10 µM: < 50%
[11]
  binding at 10 μM: NB (inhibited less than 50% of radioligand bound to them, and therefore it can be concluded they do not bind (“no binding,” NB))
[12]
  inhibition at 10 µM: < 50%
[13]
  inhibition at 10 µM: < 50%
[14]
  inhibition at 10 µM: < 50%
[15]
  binding at 10 μM: NB (inhibited less than 50% of radioligand bound to them, and therefore it can be concluded they do not bind (“no binding,” NB))
[16]
  inhibition at 10 µM: < 50%
[17]
  Ki: 0.48 nM
[18]
  inhibition at 10 µM: 65%
[19]
  inhibition at 10 µM: < 50%
[20]
  inhibition at 10 µM: < 50%
[21]
  inhibition at 10 µM: < 50%
[22]
  inhibition at 10 µM: < 50%
[23]
  inhibition at 10 µM: < 50%
[24]
  inhibition at 10 µM: < 50%
[25]
  inhibition at 10 µM: 64.4%
[26]
  inhibition at 10 µM: 60.4%
[27]
  binding at 10 μM: NB (inhibited less than 50% of radioligand bound to them, and therefore it can be concluded they do not bind (“no binding,” NB))
[28]
  inhibition at 10 µM: < 50%
[29]
  inhibition at 10 µM: < 50%
[30]
  inhibition at 10 µM: < 50%
[31]
  binding at 10 μM: NB (inhibited less than 50% of radioligand bound to them, and therefore it can be concluded they do not bind (“no binding,” NB))
[32]
  binding at 10 μM: NB (inhibited less than 50% of radioligand bound to them, and therefore it can be concluded they do not bind (“no binding,” NB))
[33]
  inhibition at 10 µM: < 50%
[34]
  inhibition at 10 µM: < 50%
[35]
  binding at 10 μM: NB (inhibited less than 50% of radioligand bound to them, and therefore it can be concluded they do not bind (“no binding,” NB))
